1 molecule from ChEMBL document CHEMBL4425158, “Synthesis, structure-activity relationships and biological evaluation of 4,5,6,7-tetrahydropyrazolopyrazines as metabotropic glutamate receptor 5 negative allosteric modulators” (Bioorg Med Chem Lett, 2016) can be followed below.

In general, bioavailability refers to the share of a dose that reaches the circulation, judged against a reference dose that is usually intravenous. A lower bioavailability goes with little systemic uptake. Broadly, the half-life is the time needed for the level to fall by half in the phase considered. By IC50 is commonly meant the concentration needed to halve the response being measured. For orientation: clearance means the rate of elimination divided by the concentration. Low values mean a low capacity for elimination, high ones a high capacity for elimination. The term Cmax denotes the highest concentration seen after dosing. Broadly, the AUC(0-inf) is total exposure, with the tail of the curve extrapolated. The low end stands for low exposure, the high end for high exposure. By solubility is commonly meant how much of the substance goes into solution per volume. Higher therefore signals a readily soluble substance.

Values after ≈ are worked out from the molar mass of the structure shown. Active and inactive are the calls of the source.

Data set [1] in a line: Volume of distribution in steady state in rat plasma at 1 mg/kg, iv after 5 mins to 24 hrs. The data set is classed as ADME, organism-based. Conditions: read-out: Vdss.
Data set [2] can be described thus: Oral bioavailability in rat plasma at 10 mg/kg, after 15 mins to 24 hrs. The data set is classed as ADME, organism-based.
A further data set has as its system Mus musculus. Nature of the data set: Antidepressant activity in CD1(ICR) mouse assessed as decrease in immobility time at 30 mg/kg, po after 1 hr by tail suspension test. The data set is classed as functional, organism-based.
Data set [3] in a line: Half life in rat plasma at 1 mg/kg, iv after 5 mins to 24 hrs. Type of data set: ADME, organism-based.
The nature of data set [4]: Unbound drug concentration in ICR mouse brain at 30 mg/kg, po after 1 hr by LC/MS/MS analysis. The settings on record: in vivo. Type of data set: ADME, organism-based.
A further data set deals with T1, Cytochrome P450 2C8 (Homo sapiens, UniProt P10632).
T1 sequence (P10632 whole entry): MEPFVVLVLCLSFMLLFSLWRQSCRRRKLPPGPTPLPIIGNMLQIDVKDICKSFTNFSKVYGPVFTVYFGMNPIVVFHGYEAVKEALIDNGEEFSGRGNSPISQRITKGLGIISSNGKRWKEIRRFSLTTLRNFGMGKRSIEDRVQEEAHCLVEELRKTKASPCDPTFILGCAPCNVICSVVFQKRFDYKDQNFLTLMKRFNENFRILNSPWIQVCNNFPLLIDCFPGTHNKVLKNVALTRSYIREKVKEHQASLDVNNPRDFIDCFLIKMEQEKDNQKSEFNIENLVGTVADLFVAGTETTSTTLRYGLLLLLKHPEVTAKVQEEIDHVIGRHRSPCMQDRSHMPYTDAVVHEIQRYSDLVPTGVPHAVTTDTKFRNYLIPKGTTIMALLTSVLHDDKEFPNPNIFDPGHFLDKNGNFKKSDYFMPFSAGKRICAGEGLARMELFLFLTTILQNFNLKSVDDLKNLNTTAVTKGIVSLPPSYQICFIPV
Nature of the data set: Inhibition of CYP2C8 in human liver microsomes using amodiaquin as substrate after 10 mins in presence of NADPH by LC/MS/MS analysis. The data set is classed as ADME. In general terms: Liver microsomes are a subcellular fraction often used to study metabolism.

Data set [5] is described as follows: Clearance in rat plasma at 1 mg/kg, iv after 5 mins to 24 hrs. Type of data set: ADME, organism-based.
Data set [6] is described as follows: Protein binding in ICR mouse brain at 30 mg/kg, po after 1 hr by LC/MS/MS analysis. The data set is classed as ADME, organism-based. The settings on record: read-out: PB (converted).
Data set [7] is described as follows: Metabolic stability in rat liver microsomes assessed as compound remaining at 1 uM after 30 mins in presence of NADPH by LC/MS/MS analysis. Type of data set: ADME, Microsome. The settings on record: read-out: Stability.
The nature of data set [8]: Ratio of drug level in brain to plasma in ICR mouse at 30 mg/kg, po after 1 hr by LC/MS/MS analysis. The data set is classed as ADME, organism-based. The settings on record: read-out: BPR.
Data set [9] addresses T2, Aryl hydrocarbon receptor (Homo sapiens, UniProt P35869).
T2 sequence (P35869 whole entry): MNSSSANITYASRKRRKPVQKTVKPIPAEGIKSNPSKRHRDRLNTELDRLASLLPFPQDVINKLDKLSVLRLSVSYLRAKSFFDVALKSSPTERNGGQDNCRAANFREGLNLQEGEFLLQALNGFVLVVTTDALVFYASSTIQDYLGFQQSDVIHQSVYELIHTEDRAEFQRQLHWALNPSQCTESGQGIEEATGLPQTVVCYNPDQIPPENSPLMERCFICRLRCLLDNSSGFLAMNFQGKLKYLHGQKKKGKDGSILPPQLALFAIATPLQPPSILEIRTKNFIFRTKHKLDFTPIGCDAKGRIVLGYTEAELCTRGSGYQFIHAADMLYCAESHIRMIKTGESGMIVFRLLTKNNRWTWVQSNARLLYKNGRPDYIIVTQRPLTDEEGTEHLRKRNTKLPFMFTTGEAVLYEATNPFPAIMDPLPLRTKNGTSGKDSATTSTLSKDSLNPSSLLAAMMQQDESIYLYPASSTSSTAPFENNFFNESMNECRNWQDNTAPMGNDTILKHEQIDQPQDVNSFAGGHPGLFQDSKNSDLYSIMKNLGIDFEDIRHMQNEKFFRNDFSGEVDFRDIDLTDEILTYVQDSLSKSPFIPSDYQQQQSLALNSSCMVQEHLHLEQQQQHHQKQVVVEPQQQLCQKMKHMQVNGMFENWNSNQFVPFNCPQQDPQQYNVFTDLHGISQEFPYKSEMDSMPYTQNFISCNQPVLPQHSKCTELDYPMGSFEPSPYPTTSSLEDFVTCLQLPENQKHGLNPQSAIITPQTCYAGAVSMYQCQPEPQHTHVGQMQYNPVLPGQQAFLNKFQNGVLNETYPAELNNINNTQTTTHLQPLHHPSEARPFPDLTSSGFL
Nature of the data set: Induction of human AhR assessed as CYP450 activation. The data set is classed as ADME.

Data set [10] is described as follows: Cmax in rat plasma at 10 mg/kg, po after 15 mins to 24 hrs. The data set is classed as ADME, organism-based. Also noted: dose 10 mg/kg, route oral.
Data set [11] is described as follows: AUC(0 to infinity) in rat plasma at 10 mg/kg, po after 15 mins to 24 hrs. Also noted: dose 10 mg/kg, route oral, time infinity. The data set is classed as ADME, organism-based.
Data set [12] in a line: Metabolic stability in human liver microsomes assessed as compound remaining at 1 uM after 30 mins in presence of NADPH by LC/MS/MS analysis. Type of data set: ADME, Microsome. Conditions: read-out: Stability.
The nature of data set [13]: Plasma concentration in ICR mouse at 30 mg/kg, po after 1 hr by LC/MS/MS analysis. Type of data set: ADME, organism-based.
For the next data set, the target named is Cytochrome P450 3A4 (Homo sapiens, UniProt P08684). Nature of the data set: Inhibition of CYP3A4 in human liver microsomes using midazolam as substrate after 10 mins in presence of NADPH by LC/MS/MS analysis. The data set is classed as ADME.
Cytochrome P450 3A4, sequence (P08684 whole entry): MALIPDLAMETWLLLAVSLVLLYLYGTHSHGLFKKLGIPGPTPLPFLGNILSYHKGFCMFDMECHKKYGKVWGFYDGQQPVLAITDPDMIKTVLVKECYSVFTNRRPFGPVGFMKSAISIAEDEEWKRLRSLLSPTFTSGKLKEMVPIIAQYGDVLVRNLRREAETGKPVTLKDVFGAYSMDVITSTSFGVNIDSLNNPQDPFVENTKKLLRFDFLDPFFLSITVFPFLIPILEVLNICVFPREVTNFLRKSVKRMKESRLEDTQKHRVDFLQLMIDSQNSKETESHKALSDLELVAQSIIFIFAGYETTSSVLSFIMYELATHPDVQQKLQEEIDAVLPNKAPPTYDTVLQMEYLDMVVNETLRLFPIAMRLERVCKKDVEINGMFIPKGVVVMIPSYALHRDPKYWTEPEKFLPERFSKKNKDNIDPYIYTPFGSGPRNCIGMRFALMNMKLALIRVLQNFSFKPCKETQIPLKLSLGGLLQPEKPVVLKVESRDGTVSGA
Data set [14] in a line: AUC(0 to infinity) in rat plasma at 1 mg/kg, iv after 5 mins to 24 hrs. Type of data set: ADME, organism-based. Further details: dose 1 mg/kg, route intravenous, time infinity.
Data set [15] in a line: Aqueous solubility of the compound at pH 7.4. Type of data set: physicochemical.
Data set [16] can be described thus: Drug uptake in ICR mouse brain at 30 mg/kg, po after 1 hr by LC/MS/MS analysis. Type of data set: ADME, organism-based. Conditions: read-out: Drug uptake.
Data set [17] in a line: Aqueous solubility of the compound at pH 1.2. The data set is classed as physicochemical.

Consider `O=C(c1cc(F)cc(Cl)c1)N1CCn2nc(-c3ccc(F)cn3)cc2C1`, for which, in data set [1], the Vd worked out at 1.5 L/kg. Moreover, the bioavailability in data set [2] stood at 95%. Besides, the result in the data set on Mus musculus was Active. In data set [3], this molecule showed a half-life of 9.2 h. Moreover, the “Drug uptake(free)” value in data set [4] was 1.38 µM. In addition, the IC50 on Cytochrome P450 2C8 and at Cytochrome P450 3A4 was > 40 µM each time. This molecule also returned a clearance in data set [5] of 2.3 mL/min/kg. Also, in data set [6], the fraction unbound at 1 h was 0.05. In addition, the remaining at 0.5 h, 1 µM in data set [7] and in [12] was > 97% throughout. Further, the Kp at 1 h in data set [8] came out at 1.38. The Activity result in data set [9] is recorded as “Not Active”. Besides, the Cmax in data set [10] turned out to be 2930 ng/mL. Moreover, the AUC(0-inf) was determined as 68700 ng·h/mL in [11] and 7220 ng·h/mL in [14]. Also, the results for the concentration at 1 h in data set [13] and in data set [16] were 21.4 µM and 29.5 µM, respectively. Moreover, the solubility turned out to be 7 µg/mL (≈ 18.7 µM) in data set [15] and 79 µg/mL (≈ 211 µM) in data set [17].
